Data published in US20260085315A1, “POLYNUCLEOTIDE COMPOSITIONS AND METHODS FOR TREATMENT OF CANCER” (APTAH BIO, INC., priority 2023, published 2026).
“And” between values parts separate entries of the source, which are not always exact repeats. Equal entries are not always repeated. d = 2'-deoxy (DNA); m = 2'-O-methyl

Assays:
MCF-7 cell line = test: MTT cytotoxicity assay on human cancer cell panel (Example 2); type: cell-based; conditions: 24, 48, 72, 96 hours; 0.03-30 μM; 0.1% FBS
Experimental: (§1) Cell lines were maintained in growth medium with 10% of Fetal Bovine Serum (FBS) until the time of the experiments. Cells were sub-cultured by trypsinization and splitting the cell suspension into fresh flasks and supplementing with fresh culture medium. To perform the assay, the cells were trypsinized, neutralized with complete medium (10% FBS), centrifuged, counted with assistance of a hemocytometer, and plated with the respective media with 10% FBS. Cell lines were plated at a density of 1×10^4 cells per well, other than the SH-SY5Y cell line which was plated at a density of 2.5×10^4. The preparation of the different experimental groups was done with 0.1% FBS (U87MG, MCF-7, SH-SY5Y and 786-O) and 1% FBS (PC-3). The untreated cells were used as negative control (medium only). After 24, 48, 72 and 96 hours of incubation, the effect of ASMO1 and controls on cytotoxicity of cells was determined by MTT assay.
(§2) Briefly, plates were taken out and 20 μl of 5 mg/ml of MTT 3-(4,5-dimethythiazol-2-yl)-2,5-diphenyl tetrazolium bromide solution was added to all the wells. Cells were incubated for 3 h at 37° C. After this period, supernatant was aspirated and 100 μl of DMSO was added to each well to dissolve formazan crystals. The absorbance of each well was then read at 540 nm using Synergy HT microplate reader.
(§3) Cells were plated and treated with 7 different concentrations (0.03, 0.1, 0.3, 1, 3, 10 and 30 μM) of APT20TTMG with medium (0.1% FBS). MTT assay was performed in 4 distinct times and graphs are represented as absorbance (540 nm). (A) 24 hours of incubation. (B) 48 hours of incubation. (C) 72 hours of incubation. (D) 96 hours of incubation.

U-87MG cell line = test: as above; type: cell-based; conditions: 0.03-30 μM, 0.1% FBS
Experimental: as §1, §2, §3

786-O line = test: as above; type: cell-based; conditions: 0.03-30 μM, 0.1% FBS
Experimental: as §1
Briefly, plates were taken out and 20 μl of 5 mg/ml of MTT 3-(4,5-dimethythiazol-2-yl)-2,5-diphenyl tetrazolium bromide solution was added to all the wells. […] The absorbance of each well was then read at 540 nm using Synergy HT microplate reader.
Cells were plated and treated with 7 different concentrations (0.03, 0.1, 0.3, 1, 3, 10 and 30 μM) of APT20TTMG with medium (0.1% FBS). MTT assay was performed in 3 distinct times and graphs are represented as absorbance (540 nm). […]

[1] = tested on: glioblastoma cell line U87-MG; test: Internalization of FAM-conjugated compound by flow cytometry; type: cell-based, Human; conditions: 1 μM FAM conjugate
Experimental: The values obtained were: 1 hour (47.45±4.7%), 2 hours (45.45±3.9%), 4 hours (58±4.8%) and 6 hours (63.65±3.2%). Cells were exposed to the fluorochrome-conjugated compound FAM at a concentration of 1 μM, so that the quantification of intracellular fluorescence was performed at 1, 2, 4 and 6 hours using of the flow cytometry technique, through the acquisition of 10,000 gated events. Data of 2 independent experiments performed in two technical replicates.

[2] = Body weight in xenograft study; type: in vivo, athymic nude mice; conditions: 20 mg/kg i.v. q3d, 3 weeks
Experimental: Body weight and tumor size were measured weekly twice using digital caliper. At termination, blood was collected through retro-orbital route. Serum/plasma was separated and stored at deep freezer (−20° C.). Post blood collection, animals were humanely sacrificed by CO2 asphyxiation as per latest guidelines issued by CPCSEA. All the vital organ (brain, kidney, liver, lungs, heart) and tumor were dissected out. Vital organs were fixed in 10% NBF and stored. Tumor tissue was dissected out, weighed and portion of tumor tissue was fixed in 10% NBF and another portion is snap frozen and stored at deep freezer (−80° C.).
As shown in FIG. 34A-C, tumor fragments from the U-87MG cell line were implanted in the animals and once the tumor size reached ˜100 mm^3 animals were randomized into 3 experimental groups (G1, G2, and G3). G1: Vehicle, (G2) Reference Item Temozolomide, and (G3) APT20TTMG for a total of 22 days. (A) The tumor volume of the animals was measured twice/a week. (B) Animals were weighed throughout the experiment and the change in weight gain compared to pre-treatment weight was plotted. (C) After the euthanasia of the animals, the tumors were removed and weighed.

cAMP = test: ELISA of tumor tissue homogenate; type: in vivo, U-87MG xenograft in animals; conditions: vs negative control; lower total expression
Experimental: (§4) For the assessment of biomarkers such as cAMP, AKT, GFAP, and TAU by ELISA, the U-87MG tumor tissues dissected out from the animals were homogenized according to kit instructions. The homogenates were centrifugated, and the supernatant was collected and immunoassayed with the Human AKT Protein ELISA Kit (MyByoSouce), cyclic AMP Complete Enzyme-linked Immunosorbent Assay (ELISA) kit (MyByoSouce), Human Glial Fibrillary Acidic Protein (GFAP) ELISA Kit (Cusabio), and Human TAU Protein (TAU) ELISA Kit (MyByoSouce) for the quantitative determination of cAMP, AKT, GFAP, and TAU proteins, respectively.
(§5) As shown in FIG. 37A-D, the graphs present the individual values of protein quantification of tumors from 6 animals. (A) cAMP, (B) […], (C) GFAP, and (D) TAU.

AKT = test: ELISA of tumor tissue homogenate; type: in vivo, Human; conditions: in relation to the negative control
Experimental: as §4, §5

GFAP = test: ELISA of tumor tissue homogenate; type: in vivo, Human; conditions: in relation to the non-treated control
Experimental: as §4, §5

TAU = test: ELISA of tumor tissue homogenate; type: in vivo, Human; conditions: after treatment
Experimental: as §4, §5

[3] = tested on: Human Glioblastoma Cancer (U-87MG) xenograft; test: Histopathology of tumor samples with scoring; type: in vivo, athymic nude mice; set-up: key: 4: Minimal; 3: Mild; 2: Moderate; 1: Prominent; conditions: individual animals; G3 APT20TTMG, G2 TMZ
Description: The fixed tissues were processed for routine paraffin embedding followed by sectioning (3-6 micron). The sections were stained with hematoxylin and eosin. The prepared slides were examined under microscope by the study pathologist to record histopathological findings in tumor samples, related to capsule formation, cell type, connective tissue stroma, apoptosis, necrosis, lipid content, nucleus-to-cytoplasmic (N:C) ratio, nuclei mitotic figures, tumor grade, and level of differentiation. Each histopathological finding and tumor volume were assigned a score ranging from 1 to 4 (Table 7). The sum of these scores for each sample was used to infer the tumor aggressiveness.

For “APT20TTMG: engineered polynucleotide ASMO1, 24 nt, SEQ ID NO: 3 gtccactaacctttcaggccagcg; targeting moieties 5′-GTCCA-3′ and 5′-CG-3′, U1 snRNP recruiting moiety (GTCCACTAACCTTTCAGGCCAGCG; sugars from the 5' end m5 d14 m5, all phosphorothioate, methylation of C and T or U not given here)”, the “cytotoxic or cytostatic effect (MTT)” value (MCF-7 cell line) was “does not exert a cytotoxic or cytostatic effect”, the “cell viability (MTT, absorbance 540 nm)” value (U-87MG cell line; 72 and 96 hours) was “like those of the vehicle group” and the “cell viability (MTT, absorbance 540 nm)” value (U-87MG cell line; 24 hours, vs negative control and vehicle) was “trend of reduction in cell viability”. For the same substance, the “cell viability (MTT, absorbance 540 nm)” value (U-87MG cell line; 48 hours) was “reduction in absorbance values”, the “cell viability (MTT)” value (786-O line; 48 and 72 hours) was “no difference when compared to the control (vehicle group), only in the highest concentration (30 μM)” and the “cell viability (MTT)” value (786-O line; 24 hours) was “can alter cell viability”. It also gave an internalization ([1]; 1 hour) of 47.45±4.7%, an internalization ([1]; 2 hours) of 45.45±3.9% and an internalization ([1]; 4 hours) of 58±4.8%. The internalization ([1]; 6 hours) was 63.65±3.2%, the “body weight of animals” value [2] was “gain weight throughout the experiment” and the “cAMP in tumor tissue (ELISA)” value (cAMP) was “no statistical difference was observed”. For the same substance, the “AKT expression in tumor tissue (ELISA)” value (AKT) was “reduces the expression of ART protein”, the “GFAP in tumor tissue (ELISA)” value (GFAP) was “reduction of this biomarker” and the “TAU expression in tumor tissue (ELISA)” value (TAU) was “significant reduction in TAU expression”. For the same substance, the “Score: Mitotic figures” value [3] was 2 and the “Score: Necrosis” value [3] was 3 and 2.
